{
  "source": "paper PMC4357015",
  "about": "“Structure, Function and Inhibition of the Phosphoethanolamine Methyltransferases of the Human Malaria Parasites Plasmodium vivax and Plasmodium knowlesi” (Scientific Reports, 2015)",
  "assay_type_in_all_cases": "cell-based",
  "key": {"pem1Δpem2Δ-pYES2.1-PvPMT": {"system": "pem1Δpem2Δ-pYES2.1-PvPMT", "assay": "yeast growth inhibition, pem1Δpem2Δ strain expressing PvPMT", "conditions": "100 μM AQ", "procedure": "(§1) Figure 5 PMT-dependent inhibition of growth and PC biosynthesis by amodiaquine and NSC158011. (A–C): Growth curves of pem1Δpem2Δ-pYES2.1-PkPMT (A), pem1Δpem2Δ-pYES2.1-PvPMT (B), or Wild Type-pYES2.1- (C) strains grown in minimal medium containing 4% galactose and 1 mM ethanolamine in the presence or absence of 100 μM choline and 100 μM amodiaquine (AQ) as indicated. Growth curves of pem1Δpem2Δ-pYES2.1-PkPMT (D), pem1Δpem2Δ-pYES2.1-PvPMT (E), or Wild Type-pYES2.1- (F) strains maintained in minimal medium containing 4% galactose and 1 mM ethanolamine in the presence or absence of 100 μM choline and 10 μM NSC158011.\n(§2) pem1Δpem2Δ-pYES2.1, pem1Δpem2Δ-pYES2.1-PkPMT, pem1Δpem2Δ-pYES2.1-PvPMT, and pem1Δpem2Δ-pYES2.1-PfPMT yeast strains were pre-grown overnight in uracil dropout synthetic galactose (4%) (SG-URA) medium supplemented with 2 mM ethanolamine (Etn). Cells were diluted to an A600 = 0.001 in fresh SG-URA medium supplemented with 2 mM Etn in the presence or absence of 100 μM Choline (Cho). Cells were grown at 30°C and the growth was monitored by measuring the A600. […]"}, "[1]": {"system": "PC biosynthesis in pem1Δpem2Δ-pYES2.1-PvPMT", "assay": "phospholipid analysis of yeast pem1Δpem2Δ strain expressing PvPMT", "conditions": "200 μM AQ", "procedure": "(§3) Figure 6 PMT-dependent inhibition of PC biosynthesis by AQ and NSC158011. To assess the effect of AQ on phospholipid metabolism, […] and wild-type strains were grown in minimal medium containing 4% galactose and 2 mM ethanolamine in the absence or presence of 200 μM AQ, lipids were extracted and separated by TLC (A). Each lipid class was scrapped off the TLC plate and quantified by measuring phosphorus (B). The effect of NSC158011 on phospholipid biosynthesis was determined by [33P] orthophosphoric acid labeling as described in Material and Methods. Lipids were separated by TLC (C) and quantified by liquid scintillation spectrometry (D). For all assays, data were used to calculate the PC/PI + PA ratio. The data are represented as the mean ± S.D. of at least two independent experiments.\n(§4) BY4741-pYes2.1 (wild-type) strains and the pem1Δpem2Δ strains harboring pYES2.1 vector, pYES2.1-PkPMT, pYES2.1-PvPMT or pYES2.1-PfPMT were pre-grown to mid-log phase at 30°C in SG-URA medium supplemented with Etn (2 mM) and Cho (2 mM). […] Each lipid class was excised from the plate and quantified by measuring phosphorus. […] After the growth, lipids were extracted and analyzed as described above. […] The resolved radioactive lipids were visualized by Phosphorimager (GE Typhoon) and quantified by liquid scintillation spectrometry as described."}, "[2]": {"system": "PC biosynthesis in pem1Δpem2Δ-pYES2.1-PkPMT", "assay": "phospholipid analysis of yeast pem1Δpem2Δ strain expressing PkPMT", "conditions": "200 μM AQ", "procedure": "as §3, §4"}, "pem1Δpem2Δ-pYES2.1-PkPMT": {"system": "pem1Δpem2Δ-pYES2.1-PkPMT", "assay": "yeast growth inhibition, pem1Δpem2Δ strain expressing PkPMT", "conditions": "100 μM AQ", "procedure": "as §1, §2"}, "[3]": {"conditions": "ethanolamine medium without choline"}},
  "data": [
    {"smiles": "CCN(CC)Cc1cc(Nc2ccnc3cc(Cl)ccc23)ccc1O", "note": "[AQ, amodiaquine]", "values": [
      {"measurement": "growth of pem1Δpem2Δ+PvPMT strain in media supplemented with choline", "setting": "pem1Δpem2Δ-pYES2.1-PvPMT; 100 μM choline", "value": "no effect"},
      {"measurement": "growth of pem1Δpem2Δ+PvPMT strain", "setting": "pem1Δpem2Δ-pYES2.1-PvPMT; [3]", "value": "significantly inhibited"},
      {"measurement": "effect on the synthesis of PE", "setting": "[1]", "value": "little to no effect"},
      {"measurement": "effect on the synthesis of PE", "setting": "[2]", "value": "little to no effect"},
      {"measurement": "growth of pem1Δpem2Δ+PkPMT strain in media supplemented with choline", "setting": "pem1Δpem2Δ-pYES2.1-PkPMT; 100 μM choline", "value": "no effect"},
      {"measurement": "growth of pem1Δpem2Δ+PkPMT strain", "setting": "pem1Δpem2Δ-pYES2.1-PkPMT; [3]", "value": "significantly inhibited"}
    ]}
  ]
}
